Results as given in patent US11331299B2, “Medicinal use of serrulatane diterpenes” (The University of Sydney, priority 2016, dated 2022).
Read-outs that look alike come from different tables or passages of the source.

System: 280 human cancer cell lines
Assay: OncoPanel cell proliferation assay (10-day)
Type: cell-based
Conditions: Homo sapiens; for GI50: read-out: Cell Count GI50; for IC50: read-out: Cell Count IC50; for EC50: read-out: Cell Count EC50
[1] = SJRH30, SJRH30, Soft Tissue - Sarcoma
[2] = SJSA-1, SJSA1, Soft Tissue - Osteosarcoma
[3] = SK-LMS-1, SK-LMS-1, Soft Tissue - Sarcoma
[4] = SK-MEL3, SK-MEL-3, Skin (Melanoma)
[5] = SK-MEL-1, SK-MEL-1, Skin (Melanoma)
[6] = SK-MEL-28, SK-MEL-28, Skin (Melanoma)
[7] = SK-OV-3, SKOV3, Female GU - Ovary
[8] = SK-UT-1, SK-UT-1, Soft Tissue - Sarcoma
[9] = SW579, SW579, Endocrine - Thyroid
[10] = SW684, SW684, Soft Tissue - Sarcoma

Structure (SMILES): CC(C)=CCC[C@H](CO)[C@@H]1CC[C@@H](C)c2c1cc(C)c(O)c2O [Compound 1, 7,8,18-trihydroxyserrulat-14-ene]
- GI50 (SH-4, Skin (Melanoma)): 1940 nM
- IC50 (SH-4, Skin (Melanoma)): 1950 nM
- EC50 (SHP77, SHP-77, Lung - SCLC): 890 nM
- GI50 (SHP77, SHP-77, Lung - SCLC): 890 nM
- IC50 (SHP77, SHP-77, Lung - SCLC): 900 nM
- EC50 [1]: 1420 nM
- GI50 [1]: 1410 nM
- IC50 [1]: 1420 nM
- EC50 [2]: 1410 nM
- GI50 [2]: 1410 nM
- IC50 [2]: 1410 nM
- EC50 (SK-BR-3, SK-BR-3, Breast): 1790 nM
- GI50 (SK-BR-3, SK-BR-3, Breast): 1760 nM
- IC50 (SK-BR-3, SK-BR-3, Breast): 1800 nM
- EC50 [3]: 1570 nM
- GI50 [3]: 1560 nM
- IC50 [3]: 1570 nM
- EC50 [4]: 4370 nM
- GI50 [4]: 4280 nM
- IC50 [4]: 4380 nM
- EC50 [5]: 4290 nM
- GI50 [5]: 4110 nM
- IC50 [5]: 4410 nM
- EC50 [6]: 1540 nM
- GI50 [6]: 1530 nM
- IC50 [6]: 1540 nM
- EC50 (SK-MES-1, SKMES1, Lung - NSCLC): 1060 nM
- GI50 (SK-MES-1, SKMES1, Lung - NSCLC): 1060 nM
- IC50 (SK-MES-1, SKMES1, Lung - NSCLC): 1060 nM
- EC50 (SK-N-AS, CNS - Neuroblastoma): 3580 nM
- GI50 (SK-N-AS, CNS - Neuroblastoma): 3540 nM
- IC50 (SK-N-AS, CNS - Neuroblastoma): 3580 nM
- EC50 (SK-N-DZ, CNS - Neuroblastoma): 3160 nM
- GI50 (SK-N-DZ, CNS - Neuroblastoma): 2940 nM
- IC50 (SK-N-DZ, CNS - Neuroblastoma): 3160 nM
- EC50 (SK-N-FI, CNS - Neuroblastoma): 7310 nM
- GI50 (SK-N-FI, CNS - Neuroblastoma): 6320 nM
- IC50 (SK-N-FI, CNS - Neuroblastoma): 7310 nM
- EC50 [7]: 1580 nM
- GI50 [7]: 1560 nM
- IC50 [7]: 1580 nM
- EC50 (SK-PN-DW, Stomach): 4660 nM
- GI50 (SK-PN-DW, Stomach): 4630 nM
- IC50 (SK-PN-DW, Stomach): 4660 nM
- EC50 [8]: 2230 nM
- GI50 [8]: 2220 nM
- IC50 [8]: 2230 nM
- EC50 (SKO-007, SKO-007, Myeloma): 990 nM
- GI50 (SKO-007, SKO-007, Myeloma): 930 nM
- IC50 (SKO-007, SKO-007, Myeloma): 990 nM
- EC50 (SNB-19, SNB-19, CNS - Glioma): 1660 nM
- GI50 (SNB-19, SNB-19, CNS - Glioma): 1650 nM
- IC50 (SNB-19, SNB-19, CNS - Glioma): 1660 nM
- EC50 (SNU1, SNU-1, Stomach): 1250 nM
- GI50 (SNU1, SNU-1, Stomach): 1250 nM
- IC50 (SNU1, SNU-1, Stomach): 1250 nM
- EC50 (SNU-5, SNU-5, Stomach): 3920 nM
- GI50 (SNU-5, SNU-5, Stomach): 3870 nM
- IC50 (SNU-5, SNU-5, Stomach): 3920 nM
- EC50 (SNU-16, SNU-16, Stomach): 1310 nM
- GI50 (SNU-16, SNU-16, Stomach): 1310 nM
- IC50 (SNU-16, SNU-16, Stomach): 1310 nM
- EC50 (SNU-423, SNU-423, Liver): 1480 nM
- GI50 (SNU-423, SNU-423, Liver): 1460 nM
- IC50 (SNU-423, SNU-423, Liver): 1490 nM
- EC50 (SR, Lymphoma): 3800 nM
- GI50 (SR, Lymphoma): 3800 nM
- IC50 (SR, Lymphoma): 3800 nM
- EC50 (ST486, ST486, Lymphoma): 1090 nM
- GI50 (ST486, ST486, Lymphoma): 1080 nM
- IC50 (ST486, ST486, Lymphoma): 1090 nM
- EC50 (SU-DHL10, SU-DHL-10, Lymphoma): 3940 nM
- GI50 (SU-DHL10, SU-DHL-10, Lymphoma): 3930 nM
- IC50 (SU-DHL10, SU-DHL-10, Lymphoma): 3940 nM
- EC50 (SU-DHL-4, SU-DHL-4, Lymphoma): 2010 nM
- GI50 (SU-DHL-4, SU-DHL-4, Lymphoma): 2010 nM
- IC50 (SU-DHL-4, SU-DHL-4, Lymphoma): 2010 nM
- EC50 (SU-DHL-5, SU-DHL-5, Lymphoma): 1200 nM
- GI50 (SU-DHL-5, SU-DHL-5, Lymphoma): 1190 nM
- IC50 (SU-DHL-5, SU-DHL-5, Lymphoma): 1200 nM
- EC50 (SU-DHL-8, SU-DHL-8, Lymphoma): 1770 nM
- GI50 (SU-DHL-8, SU-DHL-8, Lymphoma): 1770 nM
- IC50 (SU-DHL-8, SU-DHL-8, Lymphoma): 1770 nM
- EC50 (SU.86.86, SU.86.86, Pancreas): 7610 nM
- GI50 (SU.86.86, SU.86.86, Pancreas): 7580 nM
- IC50 (SU.86.86, SU.86.86, Pancreas): 7630 nM
- EC50 (SUP-T1, SUP-T1, Lymphoma): 3960 nM
- GI50 (SUP-T1, SUP-T1, Lymphoma): 3950 nM
- IC50 (SUP-T1, SUP-T1, Lymphoma): 3960 nM
- EC50 (SW48, SW48, Colon): 1330 nM
- GI50 (SW48, SW48, Colon): 1320 nM
- IC50 (SW48, SW48, Colon): 1330 nM
- EC50 [9]: 1710 nM
- GI50 [9]: 1690 nM
- IC50 [9]: 1710 nM
- EC50 [10]: 9370 nM
- GI50 [10]: 8280 nM
- IC50 [10]: 9370 nM
- EC50 (SW837, SW837, Colon): 2350 nM
- GI50 (SW837, SW837, Colon): 2330 nM
- IC50 (SW837, SW837, Colon): 2370 nM
